The values below come from patent US20160199535A1, “Controlled and Localized Release of Retinoids to Improve Neointimal Hyperplasia” (VesselTek BioMedical LLC, priority 2008, published 2016).

Converted amounts (≈) assume the structure as drawn.

For series [1] the following is noted: cited from earlier work.
Series [2] deals with human monocytic THP-1 cells. The experiment in a line: Assessment of inflammatory potential, marker expression via ELISA. It is filed as cell-based. The following applies: THP-1 cell suspension exposed to material films, LPS positive control. How it is done: For assessment of inflammatory potential, a suspension of human monocytic THP-1 cells was exposed to POC, TCP, PLGA, and ePTFE films. Afterwards, the expression of tissue factor, IL-6, and TNF-α was measured via ELISA. Addition of lipopolysaccharide (LPS) to the cells was used as a positive control.
A general note: ELISA stands for enzyme-linked immunosorbent assay.

Take `CC1=C(/C=C/C(C)=C/C=C/C(C)=C/C(=O)O)C(C)(C)CCC1` [ATRA, All-trans retinoic acid]: the “solubility in dimethylsulfoxide (DMSO)” value in series [1] (DMSO) is reported as “soluble”. Moreover, in series [1] (chloroform), the solubility in chloroform result was “soluble”. The solubility in dichloromethane result in series [1] (dichloromethane) is “soluble”. The solubility in ethanol in series [1] (ethanol) is 3 mg/mL (≈ 9.99 mM). Also, the solubility in water entry in series [1] (water) was “not readily soluble”.
In series [2], lipopolysaccharide [LPS] gave a TNF-α expression of 874 ± 531 and a Tissue factor expression of 536 ± 81.
